Assay results published in ChEMBL document CHEMBL1201862, “PubChem BioAssay data set” (2004).
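Method: 48-hour compound exposure of cells in 96-well plates, five concentrations, linear interpolation of endpoints. GI50 is the concentration that inhibits growth by half.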 The source made the active and inactive calls. Cut-off read from the data, not from the text of the source: active = GI50 up to about 1.1 µM and inactive = higher.

Key:
Test in all cases: NCI tumour cell line growth inhibition, 48 h
A498 = tested on: A498
ACHN = tested on: ACHN
CAKI-1 = tested on: CAKI-1
COLO 205 = tested on: COLO 205
HT-29 = tested on: HT-29
IGROV-1 = tested on: IGROV-1
K562 = tested on: K562
KM12 = tested on: KM12
M14 = tested on: M14
MDA-MB-231 = tested on: MDA-MB-231
NCI-H23 = tested on: NCI-H23
NCI-H460 = tested on: NCI-H460
NCI/ADR-RES = tested on: NCI/ADR-RES
OVCAR-4 = tested on: OVCAR-4
SF-268 = tested on: SF-268
SF-295 = tested on: SF-295
SF-539 = tested on: SF-539
SK-MEL-28 = tested on: SK-MEL-28
UO-31 = tested on: UO-31
SR = tested on: SR

Measured: GI50

CCOC(=O)C(CC(C)C)NC(=O)C(Cc1ccc(N(CCCl)CCCl)cc1)NC(C)=O (stereo unspecified)
inactive: A498 15.7 µM | ACHN 2.08 µM | CAKI-1 1.29 µM | COLO 205 3.7 µM | HT-29 11.7 µM | IGROV-1 11.2 µM | K562 4.81 µM | KM12 20.7 µM | M14 2.7 µM | MDA-MB-231 5.86 µM | NCI-H23 4.24 µM | NCI-H460 2.75 µM | NCI/ADR-RES 18.1 µM | OVCAR-4 8.89 µM | SF-268 4.07 µM | SF-295 7.05 µM | SF-539 2.18 µM | SK-MEL-28 5.64 µM | UO-31 8.02 µM

O=c1[nH]nc(Cc2ccccc2)n1/N=C/c1ccc([N+](=O)[O-])cc1
inactive: A498 > 100 µM | ACHN > 100 µM | CAKI-1 > 100 µM | COLO 205 > 100 µM | HT-29 > 100 µM | IGROV-1 > 100 µM | K562 > 100 µM | KM12 > 100 µM | MDA-MB-231 > 100 µM | NCI-H23 > 100 µM | NCI-H460 > 100 µM | NCI/ADR-RES > 100 µM | OVCAR-4 > 100 µM | SF-268 > 100 µM | SF-295 > 100 µM | SF-539 > 100 µM | SK-MEL-28 > 100 µM | UO-31 > 100 µM

CC(=O)C1C(=O)C(=O)N(c2ccc(Cl)c(Cl)c2)C1=O (stereo unspecified)
inactive: ACHN > 100 µM | CAKI-1 > 100 µM | COLO 205 > 100 µM | HT-29 > 100 µM | IGROV-1 > 100 µM | KM12 > 100 µM | M14 > 100 µM | MDA-MB-231 > 100 µM | NCI-H23 > 100 µM | NCI-H460 > 100 µM | NCI/ADR-RES > 100 µM | SF-295 > 100 µM | SF-539 > 100 µM | SK-MEL-28 > 100 µM | UO-31 99.3 µM

OCCN(CCO)c1ncnc2[nH]cnc12
inactive: A498 > 100 µM | ACHN > 100 µM | CAKI-1 > 100 µM | COLO 205 > 100 µM | HT-29 > 100 µM | IGROV-1 > 100 µM | K562 > 100 µM | KM12 > 100 µM | M14 > 100 µM | MDA-MB-231 80.9 µM | NCI-H23 > 100 µM | NCI-H460 > 100 µM | NCI/ADR-RES > 100 µM | OVCAR-4 > 100 µM | SF-268 > 100 µM | SF-295 > 100 µM | SK-MEL-28 > 100 µM | UO-31 63.4 µM

COC(=O)[C@@H](Nc1ccccc1)[C@@]1(C(=O)OC)SC12c1ccccc1-c1ccccc12
inactive: A498 > 100 µM | ACHN > 100 µM | CAKI-1 > 100 µM | COLO 205 > 100 µM | HT-29 34.3 µM | IGROV-1 > 100 µM | K562 56.4 µM | KM12 > 100 µM | M14 > 100 µM | MDA-MB-231 > 100 µM | NCI-H23 > 100 µM | NCI/ADR-RES > 100 µM | OVCAR-4 69.2 µM | SF-268 > 100 µM | SF-295 > 100 µM | SF-539 45.8 µM | SK-MEL-28 > 100 µM | UO-31 42.3 µM

Cc1ccc(/C=C2\Cc3cccc(C)c3C2=O)c(C(=O)O)c1
inactive: A498 > 100 µM | ACHN 28.7 µM | CAKI-1 19.9 µM | HT-29 > 100 µM | IGROV-1 96.6 µM | K562 99.8 µM | KM12 55.5 µM | M14 > 100 µM | MDA-MB-231 66.2 µM | NCI-H23 > 100 µM | NCI-H460 > 100 µM | OVCAR-4 21.1 µM | SF-268 > 100 µM | SF-295 > 100 µM | SF-539 74.8 µM | SK-MEL-28 97.3 µM | SR 90.4 µM | UO-31 17.3 µM

COc1ccc(CC2Cc3ccccc3CCN2)cc1OC (stereo unspecified)
inactive: A498 > 50 µM | CAKI-1 > 50 µM | COLO 205 11.3 µM | HT-29 13.8 µM | IGROV-1 23.9 µM | K562 20 µM | KM12 > 50 µM | M14 16.2 µM | MDA-MB-231 44.5 µM | NCI-H23 > 50 µM | NCI-H460 37.4 µM | NCI/ADR-RES > 50 µM | OVCAR-4 > 50 µM | SF-268 > 50 µM | SF-295 > 50 µM | SF-539 37.8 µM | SK-MEL-28 19.3 µM | UO-31 11.8 µM

CCN(CC)Cc1sc2nc3ccccc3n2c1-c1ccc(OC)cc1
inactive: A498 22.9 µM | ACHN 45.1 µM | CAKI-1 38.8 µM | COLO 205 21.5 µM | HT-29 18.5 µM | IGROV-1 25.5 µM | K562 3.22 µM | KM12 20.6 µM | M14 25.6 µM | MDA-MB-231 60.4 µM | NCI-H23 26.9 µM | NCI/ADR-RES 15 µM | OVCAR-4 53.2 µM | SF-268 24.3 µM | SF-295 24.5 µM | SK-MEL-28 22.7 µM | UO-31 5.28 µM

CC[C@@]1(N(C)C)C(=O)OCc2c1cc1n(c2=O)Cc2cc3ccccc3nc2-1
inactive: A498 42.7 µM | ACHN 20.3 µM | CAKI-1 > 10 µM | COLO 205 > 100 µM | K562 > 100 µM | KM12 > 100 µM | M14 > 100 µM | MDA-MB-231 96.6 µM | NCI-H23 16.6 µM | NCI-H460 12.5 µM | NCI/ADR-RES 21.3 µM | OVCAR-4 47.1 µM | SF-268 17.3 µM | SF-295 16.1 µM | SK-MEL-28 > 100 µM | UO-31 25.4 µM

CC(C)C1=CC23CCC4C(C)(C(=O)O)CCCC4(C)C2CC1C1C(=O)N(CCCCCCN2C(=O)C4C5CC6C7(C)CCCC(C)(C(=O)O)C7CCC6(C=C5C(C)C)C4C2=O)C(=O)C13 (stereo unspecified)
inactive: A498 11.6 µM | ACHN 10.9 µM | COLO 205 > 10 µM | HT-29 3.84 µM | K562 16.6 µM | KM12 11.4 µM | M14 11 µM | MDA-MB-231 15.3 µM | NCI-H23 2.74 µM | OVCAR-4 15.7 µM | SF-268 13.4 µM | SF-539 > 10 µM | SK-MEL-28 11.3 µM | SR 7.43 µM | UO-31 > 10 µM

CC1C(c2ccc(N(C)C)cc2)c2cc3c(cc2OC1N1CCCC1)OCO3 (stereo unspecified)
inactive: A498 20.7 µM | ACHN > 72.9 µM | CAKI-1 38.5 µM | COLO 205 45 µM | HT-29 32.5 µM | IGROV-1 > 65.8 µM | K562 32.5 µM | KM12 47.2 µM | M14 31.9 µM | NCI-H23 58.3 µM | NCI-H460 34.5 µM | NCI/ADR-RES 33.6 µM | OVCAR-4 > 100 µM | SF-268 66.8 µM | SF-295 32.1 µM | SF-539 21.7 µM | SK-MEL-28 > 72.8 µM | SR 38.8 µM | UO-31 30.8 µM
